Here are results for 13 molecules from patent US11339161B2, “Triazolo pyridines as modulators of gamma-secretase” (Boehringer Ingelheim International GmbH, priority 2017, dated 2022).

The subject of one assay is Aβ total. The assay is described as follows: Aβ total levels in H4 neuroglioma cells stably expressing human APP695 (MSD electrochemiluminescence). It counts as cell-based. To be noted: selectivity ratio vs. Aβtotal, Table 4a. As to the method: (§1) Cells were plated out to near confluency. The compounds to be tested were received as 10 mM stocks in 100% DMSO. A dilution series was initially generated in 100% DMSO and then diluted 200-fold in cell culture media such that the tested concentration range was 30 μM to 0.1 nM and the final DMSO concentration was 0.5%. The diluted compounds were incubated with the cells for 22 hours in an incubator at 37° C. and 5% CO2. Aβ42 levels were measured post-incubation from the supernatant of the cells using an Aβ42 specific electrochemiluminescence assay provided by Meso Scale Discovery (Catalog #L21CA-1). The measurement of Aβ42 levels were performed according to the manufacturer's protocol.
Aβ total levels were likewise determined using a specific electrochemiluminescence assay provided by Meso Scale Discovery (Catalog #L21ZA-1) according to the manufacturer's protocol.

For another assay, the system named is Aβ42 production. In words: Inhibition of Aβ42 production in H4 neuroglioma cells stably expressing human APP695 (MSD electrochemiluminescence). It counts as cell-based. Conditions: H4 neuroglioma cells expressing human APP695, 22 hours incubation; Table 4a. As to the method: as §1
Another assay has as its target CSF1R (FMS) (Homo sapiens, UniProt P07333). Conditions: substrate Tyr 01, ATP bin 500 μM (ATP Km app 450 μM), read-out: IC50 of known inhibitor (inhibitor validation); cited from earlier work.
The target of another assay is LYN B (Homo sapiens, UniProt P07948). To be noted: substrate Tyr 02, ATP bin 25 μM (ATP Km app 25 μM), read-out: IC50 of known inhibitor (inhibitor validation); cited from earlier work.
Chain of LYN B (P07948 1-491 isoform P07948-2): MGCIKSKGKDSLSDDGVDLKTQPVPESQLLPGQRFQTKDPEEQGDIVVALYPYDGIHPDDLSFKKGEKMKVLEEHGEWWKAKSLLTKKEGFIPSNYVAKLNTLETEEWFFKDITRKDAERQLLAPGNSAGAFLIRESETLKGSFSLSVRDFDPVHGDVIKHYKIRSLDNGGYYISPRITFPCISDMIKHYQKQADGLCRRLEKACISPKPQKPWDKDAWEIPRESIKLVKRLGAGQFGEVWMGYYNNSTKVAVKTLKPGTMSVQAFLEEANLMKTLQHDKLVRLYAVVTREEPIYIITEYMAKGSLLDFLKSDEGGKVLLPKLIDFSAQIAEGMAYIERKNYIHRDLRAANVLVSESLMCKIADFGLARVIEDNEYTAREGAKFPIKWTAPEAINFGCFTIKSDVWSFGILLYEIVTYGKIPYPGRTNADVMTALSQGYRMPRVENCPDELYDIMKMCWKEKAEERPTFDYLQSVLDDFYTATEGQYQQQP
In a further assay the target is ABL1 (Homo sapiens, UniProt P00519). Conditions: Z'-Lyte substrate Tyr 02, ATP bin 10 μM (ATP Km app 12 μM), read-out: IC50 of known inhibitor (inhibitor validation); cited from earlier work.
Chain of ABL1 (P00519 whole entry): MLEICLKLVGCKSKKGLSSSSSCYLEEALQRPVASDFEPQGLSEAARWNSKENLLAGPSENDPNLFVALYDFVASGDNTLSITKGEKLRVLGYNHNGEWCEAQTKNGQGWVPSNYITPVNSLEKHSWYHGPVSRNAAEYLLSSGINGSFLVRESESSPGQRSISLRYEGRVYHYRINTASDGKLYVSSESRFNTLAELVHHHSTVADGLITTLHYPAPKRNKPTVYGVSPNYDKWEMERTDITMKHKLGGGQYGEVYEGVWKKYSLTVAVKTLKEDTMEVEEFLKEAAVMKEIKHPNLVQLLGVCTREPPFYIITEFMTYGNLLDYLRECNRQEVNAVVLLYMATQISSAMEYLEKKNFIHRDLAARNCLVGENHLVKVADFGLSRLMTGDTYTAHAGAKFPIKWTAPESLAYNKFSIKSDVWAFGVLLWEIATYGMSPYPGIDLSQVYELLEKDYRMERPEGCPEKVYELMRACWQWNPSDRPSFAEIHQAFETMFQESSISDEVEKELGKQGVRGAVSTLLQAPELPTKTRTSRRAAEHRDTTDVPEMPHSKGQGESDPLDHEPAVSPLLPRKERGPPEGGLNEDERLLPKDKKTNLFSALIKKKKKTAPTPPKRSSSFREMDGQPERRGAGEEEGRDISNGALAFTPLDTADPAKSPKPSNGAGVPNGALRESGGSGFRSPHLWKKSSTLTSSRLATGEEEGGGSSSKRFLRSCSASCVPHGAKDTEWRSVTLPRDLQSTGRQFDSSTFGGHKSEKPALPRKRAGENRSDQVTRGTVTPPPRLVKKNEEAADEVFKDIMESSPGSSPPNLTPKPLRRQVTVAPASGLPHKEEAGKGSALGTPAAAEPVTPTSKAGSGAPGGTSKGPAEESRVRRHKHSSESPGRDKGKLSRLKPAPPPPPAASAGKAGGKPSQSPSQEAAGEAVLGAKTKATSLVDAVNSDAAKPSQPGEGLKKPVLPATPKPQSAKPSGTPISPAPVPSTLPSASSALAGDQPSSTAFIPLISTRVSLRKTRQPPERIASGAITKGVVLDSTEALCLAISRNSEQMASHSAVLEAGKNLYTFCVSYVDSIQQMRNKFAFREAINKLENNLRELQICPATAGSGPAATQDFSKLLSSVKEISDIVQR

The structures appear in SMILES notation.

Broadly, the IC50 is the point on the concentration scale where inhibition reaches its midpoint.

Chain of CSF1R (FMS) (P07333 20-972): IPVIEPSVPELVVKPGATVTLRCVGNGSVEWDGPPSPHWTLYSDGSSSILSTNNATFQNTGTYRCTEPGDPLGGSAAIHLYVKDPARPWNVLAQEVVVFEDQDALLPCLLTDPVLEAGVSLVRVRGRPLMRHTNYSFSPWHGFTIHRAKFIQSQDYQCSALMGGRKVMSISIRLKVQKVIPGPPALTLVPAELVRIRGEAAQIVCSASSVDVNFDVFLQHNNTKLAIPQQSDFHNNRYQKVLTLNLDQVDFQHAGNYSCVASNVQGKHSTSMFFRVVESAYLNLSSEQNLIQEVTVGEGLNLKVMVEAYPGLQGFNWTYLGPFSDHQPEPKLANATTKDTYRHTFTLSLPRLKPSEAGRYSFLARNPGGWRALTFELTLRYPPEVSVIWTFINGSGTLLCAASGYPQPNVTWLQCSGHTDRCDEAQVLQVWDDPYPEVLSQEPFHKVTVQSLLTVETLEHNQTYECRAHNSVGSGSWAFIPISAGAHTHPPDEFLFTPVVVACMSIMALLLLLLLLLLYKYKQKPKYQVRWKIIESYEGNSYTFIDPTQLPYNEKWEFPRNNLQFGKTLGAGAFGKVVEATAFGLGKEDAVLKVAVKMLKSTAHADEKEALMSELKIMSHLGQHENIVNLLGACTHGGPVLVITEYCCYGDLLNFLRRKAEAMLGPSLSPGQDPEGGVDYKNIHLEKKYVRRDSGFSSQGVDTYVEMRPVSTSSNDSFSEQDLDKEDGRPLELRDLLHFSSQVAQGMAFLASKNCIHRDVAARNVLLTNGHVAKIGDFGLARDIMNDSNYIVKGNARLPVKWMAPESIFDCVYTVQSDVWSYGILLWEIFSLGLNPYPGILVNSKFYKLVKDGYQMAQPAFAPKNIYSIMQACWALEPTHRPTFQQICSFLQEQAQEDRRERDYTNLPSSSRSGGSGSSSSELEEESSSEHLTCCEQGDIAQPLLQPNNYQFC

Regarding `CCn1ncc2c1CCC(Nc1nc3c(-c4ccc(N(C)C)nc4)cccn3n1)C2` (stereo not drawn) [Example 72, [8-(6-Dimethylamino-pyridin-3-yl)-[1,2,4]triazolo[1,5-a]pyridine-2-yl]-(1-ethyl-4,5,6,7-tetrahydro-1H-indazol-5-yl)-amine], the “Ratio AβTotal IC50/Aβ42 IC50” value with Aβ total is 538. The molecule further gave an IC50 in the assay with Aβ42 production of 50 nM.
As to `CCn1ncc2c1CCC(Nc1nc3c(-c4ccc(Cl)cc4)cccn3n1)C2` (stereo not drawn) [Example 60, [8-(4-Chloro-phenyl)-[1,2,4]triazolo[1,5-a]pyridine-2-yl]-(1-ethyl-4,5,6,7-tetrahydro-1H-indazol-5-yl)-amine], the “Ratio AβTotal IC50/Aβ42 IC50” value in the assay with Aβ total was found to be 113. In addition, half-maximal inhibition in the assay with Aβ42 production (IC50) required 60 nM.
For `CCn1ncc2c1CCC(Nc1nc3c(-c4cncc(C)c4)cccn3n1)C2` (stereo not drawn) [Example 66, (1-Ethyl-4,5,6,7-tetrahydro-1H-indazol-5-yl)-[8-(5-methyl-pyridin-3-yl)-[1,2,4]triazolo[1,5-a]pyridine-2-yl]-amine], the “Ratio AβTotal IC50/Aβ42 IC50” value in the assay on Aβ total is recorded as 154. The molecule also had an IC50 in the assay on Aβ42 production of 200 nM.
On to `CCOC1Cc2c(cnn2CC)CC1Nc1nc2c(-c3cc(F)c(F)c(F)c3)cccn2n1` (stereo not drawn) [Example 50, (6-Ethoxy-1-ethyl-4,5,6,7-tetrahydro-1H-indazol-5-yl)-[8-(3,4,5-trifluoro-phenyl)-[1,2,4]triazolo[1,5-a]pyridine-2-yl]-amine], for which the “Ratio AβTotal IC50/Aβ42 IC50” value in the assay on Aβ total was found to be 1. The molecule also had an IC50 in the assay on Aβ42 production of 21700 nM.
For `COc1cc2ncnc(Nc3cccc(Cl)c3)c2cc1OC` [Tyrphostin AG1478], the IC50 is 4420 nM at CSF1R (FMS), 242 nM on LYN B and 421 nM at ABL1.
Take `CCc1nnn2c1CCC(Nc1nc3c(-c4ccc(F)cc4C)cccn3n1)C2` (stereo not drawn) [Example 52, (3-Ethyl-4,5,6,7-tetrahydro-[1,2,3]triazolo[1,5-a]pyridine-6-yl)-[8-(4-fluoro-2-methyl-phenyl)-[1,2,4]triazolo[1,5-a]pyridine-2-yl]-amine]: the “Ratio AβTotal IC50/Aβ42 IC50” value with Aβ total came out at 2. Also, the half-inhibitory concentration (IC50) in the assay with Aβ42 production worked out at 740 nM.
`CCn1ncc2c1CCC(Nc1nc3c(-c4cnccc4C)cccn3n1)C2` (stereo not drawn) [Example 64, (1-Ethyl-4,5,6,7-tetrahydro-1H-indazol-5-yl)-[8-(4-methyl-pyridin-3-yl)-[1,2,4]triazolo[1,5-a]pyridine-2-yl]-amine]: the “Ratio AβTotal IC50/Aβ42 IC50” value in the assay on Aβ total is listed as 41. This molecule also came in with an IC50 with Aβ42 production of 730 nM.
As to `CCc1nnc2n1CCC(Nc1nc3c(-c4ccc(F)cc4C)cccn3n1)C2` (stereo not drawn) [Example 53, (3-Ethyl-5,6,7,8-tetrahydro-[1,2,4]triazolo[4,3-a]pyridine-7-yl)-[8-(4-fluoro-2-methyl-phenyl)-[1,2,4]triazolo[1,5-a]pyridine-2-yl]-amine], in the assay with Aβ total, the “Ratio AβTotal IC50/Aβ42 IC50” value is 1. The molecule further gave a 50% inhibitory concentration (IC50) in the assay with Aβ42 production of 1390 nM.
With `CCn1ncc2c1CCC(Nc1nc3c(-c4cc(F)c(F)c(F)c4)cccn3n1)C2` (stereo not drawn) [Example 62, (1-Ethyl-4,5,6,7-tetrahydro-1H-indazol-5-yl)-[8-(3,4,5-trifluoro-phenyl)-[1,2,4]triazolo[1,5-a]pyridine-2-yl]-amine], the “Ratio AβTotal IC50/Aβ42 IC50” value with Aβ total stood at 128. The molecule further displayed a 50% inhibitory concentration (IC50) in the assay on Aβ42 production of 30 nM.
Take `Cc1cc(F)ccc1-c1cccn2nc(NC3CCc4[nH]ncc4C3)nc12` (stereo not drawn) [Example 41, [8-(4-Fluoro-2-methyl-phenyl)-[1,2,4]triazolo[1,5-a]pyridine-2-yl]-(4,5,6,7-tetrahydro-1H-indazol-5-yl)-amine]: the “Ratio AβTotal IC50/Aβ42 IC50” value in the assay on Aβ total was determined as 1. This molecule also displayed an IC50 in the assay with Aβ42 production of 4570 nM.
Consider `CCn1ncc2c1CCC(Nc1nc3c(-c4ccc(F)c(Cl)c4)cccn3n1)C2` (stereo not drawn) [Example 61, [8-(3-Chloro-4-fluoro-phenyl)-[1,2,4]triazolo[1,5-a]pyridine-2-yl]-(1-ethyl-4,5,6,7-tetrahydro-1H-indazol-5-yl)-amine], for which the “Ratio AβTotal IC50/Aβ42 IC50” value in the assay with Aβ total came out at 152. In the assay with Aβ42 production, this molecule showed an IC50 of 20 nM.
Consider `CCn1ncc2c1CCC(Nc1nc3c(-c4ccccc4Cl)cccn3n1)C2` (stereo not drawn) [Example 58, [8-(2-Chloro-phenyl)-[1,2,4]triazolo[1,5-a]pyridine-2-yl]-(1-ethyl-4,5,6,7-tetrahydro-1H-indazol-5-yl)-amine], for which the “Ratio AβTotal IC50/Aβ42 IC50” value in the assay on Aβ total is listed as 34. Further, the IC50 with Aβ42 production is 60 nM.
Regarding `CCn1ncc2c1CCC(Nc1nc3c(-c4cccnc4C)cccn3n1)C2` (stereo not drawn) [Example 65, (1-Ethyl-4,5,6,7-tetrahydro-1H-indazol-5-yl)-[8-(2-methyl-pyridin-3-yl)-[1,2,4]triazolo[1,5-a]pyridine-2-yl]-amine], in the assay with Aβ total, the “Ratio AβTotal IC50/Aβ42 IC50” value is reported as 44. For the same molecule, in the assay with Aβ42 production, the midpoint of inhibition, the IC50, lay at 680 nM.
